“Also recorded” adds a separate entry of the source.
How the values were obtained:
[1] = metabolites detected in CSF; cited from earlier work
[2] = Detection of drug metabolites in patient CSF, HPLC-IMS-Q-TOF MS with in silico metabolite prediction; type: in vivo, human
Excerpt: In a next step, theoretical molecular formulas and related ion masses of the predicted metabolites were transferred into a database and compared to measured high-resolution Q-TOF mass spectra of biological samples. For that purpose, MassHunter Qualitative Workflows B.08.00 software (Agilent Technologies, Santa Clara, California) was used, as it enables (semi)-automated data processing. Within this procedure, theoretical and measured exact ion masses and abundances of isotopologues and molecule-cation adducts were compared. The results of this comparison were then used to evaluate the validity of the identification, which is expressed as a score. This quality measure is important as it reduces the risk of false positives that are likely in complex biological samples, especially when only the accurate mass of a molecule is used. […]
(§1) Metabolite detection and determination of collision cross sections was performed using an IMS-Q-TOF MS within a mass range of 100 – 1700 m/z in QTOF-only and IMS mode respectively. Ionization was again obtained by the means of positive electrospray ionization using 5 L min-1 of nitrogen stream with 300 °C for drying, a capillary voltage of 3.5 kV and a nebulizer pressure of 35 psig. Further parameters included a sheath gas flow of 11 L min-1 at 350 °C and a nozzle voltage of 1 kV. The fragmentor voltage was set to 400 V. Ion mobility experiments were performed with a maximal drift time of 60 ms at a frame rate of 0.9 frames per second resulting in a total of 600 TOF-transients within one frame. Data processing was achieved using IM-MS Browser B.08.00 from Agilent Technologies on the basis of ion

ABCB1 = assay: Intracellular drug accumulation in ABCB1-overexpressing KB-C1 cells with or without elacridar (ABCB1 substrate testing), HPLC-QqQ MS; type: cell-based; details: fold-change of drug accumulation upon ABCB1-inhibition with elacridar, Fig. 4 coding: > 2 fold-control unfavorable, 1–2 intermediate, < 1 favorable
Protocol: We first compared interaction of the investigated drugs with ABCB1 by measuring fluorescent substrate drug accumulation in the parental KB-3-1 (a HeLa cell derivative) cell model and its isogenic ABCB1-overexpressing KB-C1 cell model, as previously published. As a known fluorescent ABCB1 substrate calcein (derived from non-fluorescent calcein AM) was used in the presence of investigated drugs (1 μM and 10 μM) using fluorescence-activated cell sorting (FACS). The ABCB1 inhibitor elacridar was used as positive control. As this approach cannot distinguish competitive (by a substrate) and non-competitive (by a pure inhibitor) ABCB1 inhibition, KB-C1 cells were additionally exposed to the examined drugs with or without elacridar to test the actual impact of ABCB1 activity on the concentration of drug within the cells. In detail, cultivated cells were grown, washed, lysed using 100 μL methanol, centrifuged and stored at − 80 C prior to analysis. […] Finally, 100 μL supernatant were collected and analyzed using the developed HPLC-QqQ MS method (see Supplementary Material).
6. Experiments with ABCB1-overexpressing KBC1 cells
Experiments were conducted to test for a possible inhibition or substrate character of the investigatzed […]
Figure S8 ABCB1 testing. (A) Calcein accumulation assay in KB-3-1 (control) and ABCB1-overexpressing KBC1 cells. Bars depict calcein fluorescence intensity measured by fluorescence activated cell sorting (FACS). Higher bars as compared to calcein in ABCB1-overexpressing cells indicate ABCB1-inhibition. Elacridar served as positive control. (B) Accumulation of drugs upon ABCB1-inhibition with elacridar measured by HPLC-QqQ MS.
(without elacridar inhibition).
(1 picture or pasted object on this page, not shown here)

[3] = Calculated free (protein-unbound) drug levels in CSF, law of mass action; type: in vivo, human; details: law of mass action approach; for fraction unbound: human, CSF, oral, read-out: unbound fraction of the total drug amount measured in CSF
Excerpt: Directly measuring free drug levels in CSF may be impossible due to low drug concentrations. Besides the experimental quantitation, if feasible, also the law of mass action can be used to predict protein-unbound drug levels. Accordingly, CSF proteins and associated drugs may be considered as center and ligand, forming a complex. Consequently, we applied the corresponding mathematical model to estimate free drug concentration. The derivation is given in further detail in the supplementary material.

[4] = CSF drug concentration in pediatric brain tumor patients, Ommaya reservoir samples, HPLC-QqQ MS; type: in vivo, human; details: for CSF penetrance class: CSF concentration class; for CSF concentration, mean: total drug, steady state; for CSF concentration, mean / detection in CSF samples: oral dosing, pediatric brain tumor patients
Protocol: Samples were obtained from patients treated at the Department of Pediatrics and Adolescent Medicine at the General Hospital of Vienna and the study was approved by the ethics committee of the Medical University of Vienna. Patient characteristics (age, weight, sex) and clinical data (tumor type, medication, radiotherapy, localization, leptomeningeal disease, serum protein levels, and CSF protein levels) were retrieved from patient charts. Clinical and serum parameters were measured within the same treatment cycle, CSF protein levels at the same date and sample collection time point. Samples were collected and snap frozen within routine clinical sampling during intraventricular chemotherapy administration.
We included samples of patients who received oral small molecule inhibitors and concomitant intraventricular therapy. […] As backbone therapy the majority of patients were treated according to the MEMMAT protocol (NCT01356290) with slight modifications in some cases as indicated in Additional file 1: Table S1. Dosing for pediatric patients was adjusted according to the treatment protocols or previous reports as outlined in Table 1. […] In two cases, samples of patients being sequentially treated with different drugs were collected as indicated in Additional file 1: Table S2. […] CSF samples (< 0.5 mL) of pediatric patients were collected using an Ommaya reservoir, immediately snap frozen and afterwards stored at − 80 °C prior to HPLC-MS analysis. Figure 1 gives general information on the workflow of CSF sample collection, sample preparation and HPLC-MS analysis. Detailed information on the analysis method and the working parameters of the HPLC-MS system(s) can be found in the supplementary material available online (Additional file 1: Figures S1 and S2 and Tables S3–4).
In a first step, we determined whether CSF samples from Ommaya reservoirs analyzed with HPLC-QqQ MS or HPLC-IMS-Q-TOF MS allow reliable detection of orally administered drugs and the respective metabolites. For that purpose, special focus was on the improvement of an HPLC-QqQ MS multi-method to quantitate the respective substances in CSF samples. The applied chromatographic gradient as well as the sensitivity of the MS detection were optimized to allow a quantitation of all mentioned analytes within one run and over a broad range of analyte concentration levels (800 ng L^− 1 to 250 μg L^− 1).
Table S2 Sequential therapies of the investigated drugs in the study cohort. The period to the prior drug is indicated in brackets.
Selleckchem (Houston, TX, USA). Standards were originally prepared as a 10 mM DMSO solution, but were further diluted with methanol to obtain stock solutions containing analyte concentrations of 10 mg L-1 and were stored at 4 °C. The internal standard (ISTD) carbamazepine (> 98 %) was obtained from Sigma-Aldrich Handels GmbH (Vienna, Austria) and used as a methanolic stock solution with a concentration of 2 g L-1, which was diluted as needed.
Succinanilic acid (p.a.) was purchased from Sigma-Aldrich Handels GmbH (Vienna, Austria) diluted to a 400 mg L-1 methanolic stock solution and stored at 4 °C.
All used solvents were HPLC grade and were purchased from VWR International GmbH (Darmstadt, […]
Formic acid (≥ 96 %) was purchased from Sigma-Aldrich Handels GmbH (Vienna, Austria).
Water was used in Millipore quality obtained from a Millipore purification system (Molsheim, France).
CSF samples (< 0.5 mL) of pediatric patients receiving cancer therapy drugs were collected using an Ommaya reservoir, and were stored at -80 °C prior to further analysis.

[5] = cited from earlier work
[6] = Collision cross section by HPLC-IMS-Q-TOF MS; type: physicochemical
Excerpt: Data processing was achieved using MassHunter Workstation Software B.05.02 from Agilent […]
for quantitation, including all transitions and corresponding collision energies as well as fragmentor voltages and retention times.
Table S3 Overview of the used QqQ transitions for quantitative and qualitative characterization in Dynamic MRM Mode using 7 V of cell acceleration voltage, 500 ms cycle time and positive polarization within an Agilent 6420 QqQ.
Compound Precursor Ion Product Ion / r.t. / min Fragmentor / Collision […]
as §1

[7] = Matched serum sample to prove oral uptake of nintedanib, HPLC-MS; type: in vivo, human; details: one time point, patient #4

Structure (SMILES)	Active / Inactive (biological activity of metabolite) [1]	metabolite identification in CSF [2]	ABCB1 substrate evaluation (ABCB1)	fraction unbound [3]	calculated free, unbound CSF concentration, mean [3]	CSF penetrance class [4]	CSF concentration, mean [4]	other results
CNC(=O)c1cc2cnc(Nc3ccc(N4CCNCC4)cn3)nc2n1C1CCCC1 [demethylated ribociclib]	active	identified						
O=C(CCCCCCC(=O)Nc1ccccc1)NO[C@@H]1O[C@H](C(=O)O)[C@@H](O)[C@H](O)[C@H]1O [glucuronidated vorinostat]	inactive	identified						
Cc1nc(Nc2ncc(C(=O)Nc3c(C)cccc3Cl)s2)cc(N2CCN(CCO)CC2)n1 [dasatinib]			highly transported by ABCB1	~0.99	1 nM	moderate (moderate (1–10 nM))	1.2 nM	proportion of CSF samples in which the drug was detected ([4]; CSF samples of pediatric patients): 66%
Cc1ccc(NC(=O)c2ccc(CN3CCNCC3)cc2)cc1Nc1nccc(-c2cccnc2)n1 [demethylated imatinib]	active	identified						
CNC(=O)c1cc(Oc2ccc(NC(=O)Nc3ccc(Cl)c(C(F)(F)F)c3)c(F)c2)ccn1 [regorafenib]			most favorable	< 0.6	3.9 nM	moderate (moderate (1–10 nM))	6.7 nM	protein binding in serum ([5]; serum): 99.5%; CCS value relative to that expected from the MW [6]: significantly lower
O=C(O)CCC(=O)Nc1ccccc1 [succinanilic acid]	inactive	identified; also recorded: high concentrations						
Cc1[nH]c2ccccc2c1CCNCc1ccc(/C=C/C(=O)NO)cc1 [panobinostat]			highly transported by ABCB1					panobinostat levels in a published study ([5]; children, higher panobinostat doses): below the detection limit; half-life [5]: 31 h; detection in CSF samples [4]: not detected; also recorded: untraceable
CN(C)C(=O)c1cc2cnc(Nc3ccc(N4CCNCC4)cn3)nc2n1C1CCCC1 [ribociclib]			intermediate	~0.99	43.5 nM	high (high (> 10 nM))	44.1 nM	level detected in CSF of our patient ([4]; pediatric patient, 3.33 mg/kg daily, as quoted in discussion): 43 nM
O=C(CCCCCCC(=O)Nc1ccccc1)NO [vorinostat]			most favorable	~0.99	75.3 nM	high (high (> 10 nM))	75.4 nM	
COC(=O)c1ccc2c(c1)NC(=O)/C2=C(\Nc1ccc(N(C)C(=O)CN2CCN(C)CC2)cc1)c1ccccc1 [nintedanib]			intermediate					detection in CSF samples [4]: not detected; also recorded: not identified; serum concentration [7]: 30 nM
